Experimental data taken from ChEMBL document CHEMBL4002562, “Terminal functionalized thiourea-containing dipeptides as multidrug-resistance reversers that target 20S proteasome and cell proliferation” (Eur J Med Chem, 2017).

Experiments:
[1] = biological target: T1, Proteasome Macropain subunit MB1 (Homo sapiens, UniProt P28074); experiment: Inhibition of chymotrypsin-like activity of human 20S proteasome using Suc-LLVY-AMC as substrate by fluorometric method
T1 sequence (P28074 whole entry): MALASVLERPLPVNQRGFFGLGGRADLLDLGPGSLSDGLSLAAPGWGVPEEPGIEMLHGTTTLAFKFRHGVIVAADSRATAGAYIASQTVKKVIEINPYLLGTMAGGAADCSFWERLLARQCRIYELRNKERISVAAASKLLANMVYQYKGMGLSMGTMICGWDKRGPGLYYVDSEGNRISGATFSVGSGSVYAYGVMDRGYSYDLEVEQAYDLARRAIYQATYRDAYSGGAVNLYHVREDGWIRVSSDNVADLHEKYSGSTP

NCI-H460 [2] = experiment: Resistant factor, ratio of IC50 for human doxorubicin-resistant NCI-H460 cells to IC50 for human NCI-H460 cells; format: functional
NCI-H460 [3] = experiment: cells; conditions: Homo sapiens, NCI-H460, 48 h
HepG2 [4] = experiment: Resistant factor, ratio of IC50 for human doxorubicin-resistant HepG2 cells to IC50 for human HepG2 cells; format: functional
NCI-H460 [5] = experiment: Cytotoxicity against human NCI-H460 cells after 48 hrs by MTT assay; conditions: NCI-H460, 48 h
L02 = experiment: Cytotoxicity against human HL-7702 cells after 48 hrs by MTT assay; format: cell-based; conditions: L02, 48 h
HepG2 [6] = experiment: Cytotoxicity against human doxorubicin-resistant HepG2 cells after 48 hrs by MTT assay; format: functional, cell-based; conditions: HepG2, 48 h
HepG2 [7] = experiment: cells; conditions: Homo sapiens, HepG2, 48 h
Description: Cytotoxicity against human HepG2 cells after 48 hrs by MTT assay

NCI-H460 [8] = experiment: Induction of apoptosis in doxorubicin-resistant human NCI-H460 cells assessed as late apoptotic/necrotic cells at 4 uM after 24 hrs by Annexin V-PE/7-AAD staining-based flow cytometric analysis (reference value: 2.87%); format: functional
NCI-H460 [9] = experiment: Induction of apoptosis in doxorubicin-resistant human NCI-H460 cells assessed as viable cells at 4 uM after 24 hrs in presence of p-gp inhibitor LY335979 by Annexin V-PE/7-AAD staining-based flow cytometric analysis (reference value: 95.2%); format: functional; conditions: NCI-H460, 24 h, read-out: Activity
NCI-H460 [10] = experiment: Induction of apoptosis in human NCI-H460 cells assessed as viable cells at 4 uM after 24 hrs by Annexin V-PE/7-AAD staining-based flow cytometric analysis (reference value: 83%); format: functional; conditions: NCI-H460, 24 h, read-out: Activity
NCI-H460 [11] = experiment: Induction of apoptosis in human NCI-H460 cells assessed as viable cells at 4 uM after 24 hrs in presence of p-gp inhibitor LY335979 by Annexin V-PE/7-AAD staining-based flow cytometric analysis (reference value: 83%); format: functional; conditions: NCI-H460, 24 h, read-out: Activity
[12] = biological target: Proteasome Macropain subunit (Homo sapiens, UniProt P49721); experiment: Inhibition of trypsin-like activity of human 20S proteasome using Bz-VGR-AMC as substrate by fluorometric method
Proteasome Macropain subunit, sequence (P49721 whole entry): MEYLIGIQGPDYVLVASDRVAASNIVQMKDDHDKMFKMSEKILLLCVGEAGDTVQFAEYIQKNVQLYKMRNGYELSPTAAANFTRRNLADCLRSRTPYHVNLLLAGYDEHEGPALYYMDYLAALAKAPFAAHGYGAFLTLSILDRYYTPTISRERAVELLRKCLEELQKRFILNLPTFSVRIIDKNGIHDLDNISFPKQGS

NCI-H460 [13] = experiment: Induction of apoptosis in human NCI-H460 cells assessed as early apoptotic cells at 4 uM after 24 hrs in presence of p-gp inhibitor LY335979 by Annexin V-PE/7-AAD staining-based flow cytometric analysis (reference value: 1.33%); format: functional
NCI-H460 [14] = experiment: Induction of apoptosis in human NCI-H460 cells assessed as late apoptotic/necrotic cells at 4 uM after 24 hrs in presence of p-gp inhibitor LY335979 by Annexin V-PE/7-AAD staining-based flow cytometric analysis (reference value: 5.73%); format: functional
NCI-H460 [15] = experiment: Induction of apoptosis in human NCI-H460 cells assessed as damaged cells at 4 uM after 24 hrs in presence of p-gp inhibitor LY335979 by Annexin V-PE/7-AAD staining-based flow cytometric analysis (reference value: 9.98%); format: functional
NCI-H460 [16] = experiment: Induction of apoptosis in doxorubicin-resistant human NCI-H460 cells assessed as early apoptotic cells at 4 uM after 24 hrs in presence of p-gp inhibitor LY335979 by Annexin V-PE/7-AAD staining-based flow cytometric analysis (reference value: 1.40%); format: functional
NCI-H460 [17] = experiment: Induction of apoptosis in human NCI-H460 cells assessed as damaged cells at 4 uM after 24 hrs by Annexin V-PE/7-AAD staining-based flow cytometric analysis (reference value: 9.98%); format: functional
NCI-H460 [18] = experiment: Induction of apoptosis in doxorubicin-resistant human NCI-H460 cells assessed as late apoptotic/necrotic cells at 4 uM after 24 hrs in presence of p-gp inhibitor LY335979 by Annexin V-PE/7-AAD staining-based flow cytometric analysis (reference value: 2.87%); format: functional
NCI-H460 [19] = experiment: Induction of apoptosis in doxorubicin-resistant human NCI-H460 cells assessed as viable cells at 4 uM after 24 hrs by Annexin V-PE/7-AAD staining-based flow cytometric analysis (reference value: 95.2%); format: functional; conditions: NCI-H460, 24 h, read-out: Activity
NCI-H460 [20] = experiment: Induction of apoptosis in doxorubicin-resistant human NCI-H460 cells assessed as early apoptotic cells at 4 uM after 24 hrs by Annexin V-PE/7-AAD staining-based flow cytometric analysis (reference value: 1.40%); format: functional
NCI-H460 [21] = experiment: Induction of apoptosis in human NCI-H460 cells assessed as early apoptotic cells at 4 uM after 24 hrs by Annexin V-PE/7-AAD staining-based flow cytometric analysis (reference value: 1.33%); format: functional
NCI-H460 [22] = experiment: Induction of apoptosis in human NCI-H460 cells assessed as late apoptotic/necrotic cells at 4 uM after 24 hrs by Annexin V-PE/7-AAD staining-based flow cytometric analysis (reference value: 5.73%); format: functional
NCI-H460 [23] = experiment: Induction of apoptosis in doxorubicin-resistant human NCI-H460 cells assessed as damaged cells at 4 uM after 24 hrs by Annexin V-PE/7-AAD staining-based flow cytometric analysis (reference value: 0.493%); format: functional
NCI-H460 [24] = experiment: Induction of apoptosis in doxorubicin-resistant human NCI-H460 cells assessed as damaged cells at 4 uM after 24 hrs in presence of p-gp inhibitor LY335979 by Annexin V-PE/7-AAD staining-based flow cytometric analysis (reference value: 0.493%); format: functional

Compound	IC50 [1]	Ratio IC50 (NCI-H460 [2])	IC50 (NCI-H460 [3])	Ratio IC50 (HepG2 [4])	IC50 (NCI-H460 [5])	IC50 (L02)	IC50 (HepG2 [6])	IC50 (HepG2 [7])	further results
CC[C@H](C)[C@H](/N=C(/Nc1cccc(C(F)(F)F)c1)SC)C(=O)N[C@H](Cc1ccccc1)C(=O)Nc1ccc(Cl)c(Cl)c1	22.2 µM								
CC[C@H](C)[C@H](NC(=S)Nc1cccc([N+](=O)[O-])c1)C(=O)N[C@H](Cc1ccccc1)C(=O)Nc1cccc(OC)c1	22.3 µM								
CC[C@H](C)[C@H](NC(=S)Nc1ccc(Br)cc1)C(=O)N[C@H](Cc1ccccc1)C(=O)Nc1ccc(C)c(Cl)c1	> 50 µM								
CC[C@H](C)[C@H](NC(=S)Nc1cccc([N+](=O)[O-])c1)C(=O)N[C@H](Cc1ccccc1)C(=O)Nc1ccc(Br)cc1	2.71 µM	2.18	35.2 µM	2.76	16.2 µM	> 50 µM	48.2 µM	17.4 µM	
CC[C@H](C)[C@H](/N=C(/Nc1cccc([N+](=O)[O-])c1)SC)C(=O)N[C@H](Cc1ccccc1)C(=O)Nc1ccc(C)c(C)c1	> 50 µM								
CC[C@H](C)[C@H](NC(=S)Nc1cccc([N+](=O)[O-])c1)C(=O)N[C@H](Cc1ccccc1)C(=O)Nc1cccc(Cl)c1	5.84 µM	2.32	31.7 µM		13.6 µM	> 50 µM	> 50 µM	20.7 µM	
CC[C@H](C)[C@H](NC(=S)Nc1cccc(C(F)(F)F)c1)C(=O)N[C@H](Cc1ccccc1)C(=O)Nc1cccc(C(F)(F)F)c1	19.6 µM								
CC[C@H](C)[C@H](NC(=S)Nc1cccc([N+](=O)[O-])c1)C(=O)N[C@H](Cc1ccccc1)C(=O)Nc1ccc(Cl)c(Cl)c1	1.36 µM	2.18	32.3 µM	2.82	14.8 µM	> 50 µM	37.4 µM	13.3 µM	
CC[C@H](C)[C@H](NC(=S)Nc1cccc([N+](=O)[O-])c1)C(=O)N[C@H](Cc1ccccc1)C(=O)Nc1cccc(C(F)(F)F)c1	0.0086 µM	3.96	6.74 µM	2.12	1.7 µM	> 50 µM	10.2 µM	4.8 µM	Activity (NCI-H460 [8]): 5.96%; viability at 4 µM (NCI-H460 [9]): 32.5%; viability at 4 µM (NCI-H460 [10]): 74.2%; viability at 4 µM (NCI-H460 [11]): 57%; IC50 [12]: Not Active; Activity (NCI-H460 [13]): 4.86%; Activity (NCI-H460 [14]): 24.2%; Activity (NCI-H460 [15]): 13.9%; Activity (NCI-H460 [16]): 31.9%; Activity (NCI-H460 [17]): 4.72%; Activity (NCI-H460 [18]): 29.9%; viability at 4 µM (NCI-H460 [19]): 80.8%; Activity (NCI-H460 [20]): 11.4%; Activity (NCI-H460 [21]): 13.3%; Activity (NCI-H460 [22]): 7.76%; Activity (NCI-H460 [23]): 1.9%; Activity (NCI-H460 [24]): 5.72%
CC[C@H](C)[C@H](/N=C(/Nc1cccc(C(F)(F)F)c1)SC)C(=O)N[C@H](Cc1ccccc1)C(=O)Nc1cccc(C(F)(F)F)c1	8.83 µM		> 50 µM	2.55	20.3 µM	> 50 µM	49.2 µM	19.3 µM	IC50 [12]: Not Active
CC[C@H](C)[C@H](NC(=S)Nc1cccc([N+](=O)[O-])c1)C(=O)N[C@H](Cc1ccccc1)C(=O)Nc1ccc(C)c(C)c1	> 50 µM								
CC[C@H](C)[C@H](NC(=S)Nc1ccc(C(F)(F)F)cc1)C(=O)N[C@H](Cc1ccccc1)C(=O)Nc1cccc(Br)c1	0.022 µM	1.58	11.2 µM	1.47	7.13 µM	> 50 µM	27.4 µM	18.6 µM	
CC[C@H](C)[C@H](NC(=S)Nc1cccc([N+](=O)[O-])c1)C(=O)N[C@H](Cc1ccccc1)C(=O)Nc1cccc(F)c1	3.57 µM	2.33	28.6 µM	2.04	12.3 µM	> 50 µM	36.8 µM	18 µM	
CC[C@H](C)[C@H](NC(=S)Nc1cccc([N+](=O)[O-])c1)C(=O)N[C@H](Cc1ccccc1)C(=O)Nc1ccc(OC)cc1	29 µM								
CC[C@H](C)[C@H](NC(=S)Nc1cccc([N+](=O)[O-])c1)C(=O)N[C@H](Cc1ccccc1)C(=O)Nc1ccc(C)c(Cl)c1	> 50 µM								
CC[C@H](C)[C@H](NC(=S)Nc1cccc(C(F)(F)F)c1)C(=O)N[C@H](Cc1ccccc1)C(=O)Nc1ccc(Cl)c(Cl)c1	0.017 µM	2.52	15.5 µM	2.44	6.14 µM	> 50 µM	29.6 µM	12.1 µM	IC50 [12]: Not Active
CC[C@H](C)[C@H](NC(=S)Nc1cccc([N+](=O)[O-])c1)C(=O)N[C@H](Cc1ccccc1)C(=O)Nc1ccc(F)cc1	1.97 µM	2.09	42.4 µM	2.78	20.2 µM	> 50 µM	48.5 µM	17.5 µM	
COc1cccc2c1C(=O)c1c(O)c3c(c(O)c1C2=O)C[C@@](O)(C(=O)CO)C[C@@H]3O[C@H]1C[C@H](N)[C@H](O)[C@H](C)O1 [DOXORUBICIN]						12.2 µM	> 50 µM	6.91 µM	
